Experimental findings from ChEMBL document CHEMBL5212743, “Selectivity Literature for EUbOPEN Chemogenomics Library wave 3” (2023) are described below.

Assay [1] concerns the target Tyrosine-protein kinase JAK2 (Homo sapiens, UniProt O60674). The assay is described as follows: Selectivity interaction (KinomeScan (DiscoverX)) EUB0000138c JAK2. To be noted: at 100 nM.
The target in assay [2] is T1, Homeodomain-interacting protein kinase 4 (Homo sapiens) (UniProt Q8NE63).
T1 sequence (whole entry): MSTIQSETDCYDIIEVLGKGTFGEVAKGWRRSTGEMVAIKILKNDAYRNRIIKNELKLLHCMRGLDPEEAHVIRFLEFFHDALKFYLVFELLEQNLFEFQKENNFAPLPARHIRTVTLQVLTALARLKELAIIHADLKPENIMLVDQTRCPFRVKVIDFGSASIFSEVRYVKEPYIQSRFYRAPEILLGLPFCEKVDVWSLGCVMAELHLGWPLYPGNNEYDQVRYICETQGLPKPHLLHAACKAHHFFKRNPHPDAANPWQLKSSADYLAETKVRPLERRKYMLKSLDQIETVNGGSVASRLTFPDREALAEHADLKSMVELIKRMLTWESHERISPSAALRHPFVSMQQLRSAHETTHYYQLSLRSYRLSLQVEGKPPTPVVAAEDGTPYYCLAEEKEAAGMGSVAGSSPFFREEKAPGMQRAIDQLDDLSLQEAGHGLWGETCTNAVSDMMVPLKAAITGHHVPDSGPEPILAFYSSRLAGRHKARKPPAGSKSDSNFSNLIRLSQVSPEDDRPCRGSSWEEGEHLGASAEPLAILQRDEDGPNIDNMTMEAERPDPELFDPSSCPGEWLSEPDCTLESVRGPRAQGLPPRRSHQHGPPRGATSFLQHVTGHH
The following applies: at 1 µM.

In assay [3] the target is Muscle, skeletal receptor tyrosine-protein kinase (Homo sapiens) (UniProt O15146). The following applies: at 1 µM.
Sequence of Muscle, skeletal receptor tyrosine-protein kinase (Homo sapiens) (O15146 whole entry): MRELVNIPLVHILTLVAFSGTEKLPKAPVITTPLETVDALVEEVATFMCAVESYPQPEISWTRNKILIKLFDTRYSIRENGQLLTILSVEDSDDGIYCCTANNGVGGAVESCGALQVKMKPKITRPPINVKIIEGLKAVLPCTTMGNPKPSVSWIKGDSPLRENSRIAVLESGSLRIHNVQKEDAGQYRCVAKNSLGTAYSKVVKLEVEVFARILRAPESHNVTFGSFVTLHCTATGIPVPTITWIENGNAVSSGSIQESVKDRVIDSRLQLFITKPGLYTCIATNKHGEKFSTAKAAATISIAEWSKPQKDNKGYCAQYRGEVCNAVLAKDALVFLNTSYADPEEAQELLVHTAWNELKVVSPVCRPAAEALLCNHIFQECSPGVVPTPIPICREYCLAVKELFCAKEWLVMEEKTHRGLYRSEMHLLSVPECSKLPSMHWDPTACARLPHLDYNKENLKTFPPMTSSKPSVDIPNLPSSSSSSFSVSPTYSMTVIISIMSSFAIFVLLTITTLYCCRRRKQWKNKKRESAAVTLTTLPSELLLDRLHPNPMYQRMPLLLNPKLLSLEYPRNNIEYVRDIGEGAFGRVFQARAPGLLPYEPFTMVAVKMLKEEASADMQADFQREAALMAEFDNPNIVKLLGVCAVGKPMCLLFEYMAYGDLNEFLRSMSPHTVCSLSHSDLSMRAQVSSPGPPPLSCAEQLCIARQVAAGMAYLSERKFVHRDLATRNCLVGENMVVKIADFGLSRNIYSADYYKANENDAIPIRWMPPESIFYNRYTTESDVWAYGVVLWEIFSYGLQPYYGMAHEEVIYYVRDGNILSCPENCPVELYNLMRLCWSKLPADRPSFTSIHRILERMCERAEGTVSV
In assay [4] the target is Serine/threonine-protein kinase Chk2 (Homo sapiens, UniProt O96017). To be noted: at 1 µM.
In assay [5] the target is BMP-2-inducible protein kinase (Homo sapiens) (UniProt Q9NSY1). The assay is described as follows: Selectivity interaction (KinomeScan (DiscoverX)) EUB0000698a BMP2K. The following applies: at 10 µM.
Sequence of BMP-2-inducible protein kinase (Homo sapiens) (Q9NSY1 whole entry, looked up): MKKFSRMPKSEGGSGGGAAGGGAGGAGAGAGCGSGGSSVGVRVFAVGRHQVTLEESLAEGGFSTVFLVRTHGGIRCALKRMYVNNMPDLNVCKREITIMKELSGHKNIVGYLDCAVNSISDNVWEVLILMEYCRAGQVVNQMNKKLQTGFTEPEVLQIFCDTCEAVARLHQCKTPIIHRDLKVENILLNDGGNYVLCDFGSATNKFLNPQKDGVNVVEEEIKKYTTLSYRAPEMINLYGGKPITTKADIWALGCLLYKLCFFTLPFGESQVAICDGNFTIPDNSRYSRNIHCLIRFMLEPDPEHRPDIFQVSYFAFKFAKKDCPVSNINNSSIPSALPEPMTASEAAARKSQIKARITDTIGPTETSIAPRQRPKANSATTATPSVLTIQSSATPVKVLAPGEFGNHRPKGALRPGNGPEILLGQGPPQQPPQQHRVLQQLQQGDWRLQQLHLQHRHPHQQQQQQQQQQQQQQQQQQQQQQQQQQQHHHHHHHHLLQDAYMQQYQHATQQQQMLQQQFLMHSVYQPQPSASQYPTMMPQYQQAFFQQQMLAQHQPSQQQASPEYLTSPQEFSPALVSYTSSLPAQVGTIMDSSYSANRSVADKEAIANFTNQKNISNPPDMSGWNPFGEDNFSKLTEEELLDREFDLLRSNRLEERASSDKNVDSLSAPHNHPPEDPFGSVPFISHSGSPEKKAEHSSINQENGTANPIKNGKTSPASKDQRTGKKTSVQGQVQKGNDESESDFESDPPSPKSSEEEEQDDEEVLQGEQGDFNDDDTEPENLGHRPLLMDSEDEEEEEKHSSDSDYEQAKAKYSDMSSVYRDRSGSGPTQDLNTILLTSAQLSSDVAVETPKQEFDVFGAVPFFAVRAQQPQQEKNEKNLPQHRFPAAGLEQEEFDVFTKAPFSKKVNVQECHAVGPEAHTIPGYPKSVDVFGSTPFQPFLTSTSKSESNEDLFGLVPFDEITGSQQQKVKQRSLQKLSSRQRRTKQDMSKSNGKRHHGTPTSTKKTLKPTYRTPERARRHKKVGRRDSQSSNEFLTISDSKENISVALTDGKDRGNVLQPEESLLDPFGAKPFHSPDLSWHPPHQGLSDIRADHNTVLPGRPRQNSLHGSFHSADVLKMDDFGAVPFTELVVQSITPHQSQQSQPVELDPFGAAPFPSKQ
In assay [6] the target is T2, Dual specificity mitogen-activated protein kinase kinase 5 (Homo sapiens) (UniProt Q13163).
T2 sequence (whole entry): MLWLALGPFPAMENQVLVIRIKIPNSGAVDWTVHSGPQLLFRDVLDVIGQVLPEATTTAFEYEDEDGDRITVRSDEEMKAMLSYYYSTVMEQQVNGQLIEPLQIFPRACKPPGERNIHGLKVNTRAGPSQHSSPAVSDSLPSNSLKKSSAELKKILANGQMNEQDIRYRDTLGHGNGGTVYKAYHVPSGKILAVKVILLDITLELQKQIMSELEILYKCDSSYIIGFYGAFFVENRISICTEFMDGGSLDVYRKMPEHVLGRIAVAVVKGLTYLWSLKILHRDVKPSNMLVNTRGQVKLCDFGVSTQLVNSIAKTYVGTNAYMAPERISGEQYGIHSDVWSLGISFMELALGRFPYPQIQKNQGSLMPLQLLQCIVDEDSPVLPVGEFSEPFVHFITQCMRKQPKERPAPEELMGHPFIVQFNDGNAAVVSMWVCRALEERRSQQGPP
The assay is described as follows: Selectivity interaction (KinomeScan (DiscoverX)) EUB0000305b MAP2K5. To be noted: CellTiter-Glo assay (Promega, proliferation in ACHN cells): IC50 = […] nM, https://www.sgc-ffm.uni-frankfurt.de/#!specificprobeove, at 100 nM.

Assay [7] has as its target High affinity nerve growth factor receptor (Homo sapiens, UniProt P04629). The assay is described as follows: Selectivity interaction (KinomeScan (DiscoverX)) EUB0000702a NTRK1. To be noted: at 1 µM.
Assay [8] concerns the target Serine/threonine-protein kinase WNK4 (Homo sapiens) (UniProt Q96J92). As to the kind of experiment: Selectivity interaction (KinomeScan (DiscoverX)) EUB0000702a WNK4. To be noted: at 1 µM.
Assay [9] deals with T3, Receptor-type tyrosine-protein kinase FLT3 (Homo sapiens), P36888 [N841I].
T3 sequence (whole entry): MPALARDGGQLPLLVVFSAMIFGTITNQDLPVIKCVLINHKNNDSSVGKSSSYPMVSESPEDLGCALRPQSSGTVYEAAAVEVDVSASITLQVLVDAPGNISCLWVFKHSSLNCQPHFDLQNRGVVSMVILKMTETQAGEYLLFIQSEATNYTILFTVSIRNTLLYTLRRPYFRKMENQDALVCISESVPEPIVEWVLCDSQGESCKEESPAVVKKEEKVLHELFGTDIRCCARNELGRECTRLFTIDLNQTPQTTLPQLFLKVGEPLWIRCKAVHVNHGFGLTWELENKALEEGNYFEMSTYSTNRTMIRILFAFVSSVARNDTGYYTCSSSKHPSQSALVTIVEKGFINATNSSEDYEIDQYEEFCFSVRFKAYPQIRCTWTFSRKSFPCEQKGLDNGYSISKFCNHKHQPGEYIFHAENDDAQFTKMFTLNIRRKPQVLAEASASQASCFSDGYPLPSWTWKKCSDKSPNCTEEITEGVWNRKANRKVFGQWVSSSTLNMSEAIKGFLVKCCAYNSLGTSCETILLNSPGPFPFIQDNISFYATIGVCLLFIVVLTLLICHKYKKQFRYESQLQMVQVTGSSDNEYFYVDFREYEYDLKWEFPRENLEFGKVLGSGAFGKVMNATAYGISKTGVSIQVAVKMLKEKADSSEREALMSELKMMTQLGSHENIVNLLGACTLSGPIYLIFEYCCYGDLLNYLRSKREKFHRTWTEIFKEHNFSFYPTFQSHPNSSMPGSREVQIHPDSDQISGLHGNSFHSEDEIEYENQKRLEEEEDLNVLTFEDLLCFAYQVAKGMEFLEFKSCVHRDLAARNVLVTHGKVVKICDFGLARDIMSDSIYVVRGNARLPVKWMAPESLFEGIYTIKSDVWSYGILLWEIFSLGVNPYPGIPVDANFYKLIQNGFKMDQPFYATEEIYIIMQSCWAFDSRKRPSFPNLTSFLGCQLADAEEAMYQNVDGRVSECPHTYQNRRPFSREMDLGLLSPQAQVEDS
The assay is described as follows: (§1) Selectivity interaction (KinomeScan (DiscoverX)) EUB0000702a FLT3. The following applies: at 1 µM.

The target of assay [10] is Receptor-type tyrosine-protein kinase FLT3 (Homo sapiens) (UniProt P36888). Described as §1. The following applies: at 1 µM.
In assay [11] the target is Serine/threonine-protein kinase 26 (Homo sapiens) (UniProt Q9P289). The assay is described as follows: Selectivity interaction (KinomeScan (DiscoverX)) EUB0000178b STK26. To be noted: at 1 µM.
Sequence of Serine/threonine-protein kinase 26 (Homo sapiens) (Q9P289 2-416 limits assumed): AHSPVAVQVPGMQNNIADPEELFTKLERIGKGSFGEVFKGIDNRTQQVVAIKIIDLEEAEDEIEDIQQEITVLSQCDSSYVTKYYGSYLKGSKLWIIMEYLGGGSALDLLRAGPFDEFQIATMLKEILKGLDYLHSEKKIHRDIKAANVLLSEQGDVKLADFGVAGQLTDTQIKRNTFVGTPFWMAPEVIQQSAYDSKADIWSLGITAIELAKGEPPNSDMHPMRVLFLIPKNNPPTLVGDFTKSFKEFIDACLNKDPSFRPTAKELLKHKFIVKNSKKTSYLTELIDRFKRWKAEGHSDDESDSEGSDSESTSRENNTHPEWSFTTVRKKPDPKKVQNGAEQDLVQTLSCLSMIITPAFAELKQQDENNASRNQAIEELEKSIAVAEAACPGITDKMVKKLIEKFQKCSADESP
For assay [12], the target named is Mitogen-activated protein kinase 14 (Homo sapiens, UniProt Q16539). To be noted: at 10 µM.
Sequence of Mitogen-activated protein kinase 14 (Q16539 whole entry): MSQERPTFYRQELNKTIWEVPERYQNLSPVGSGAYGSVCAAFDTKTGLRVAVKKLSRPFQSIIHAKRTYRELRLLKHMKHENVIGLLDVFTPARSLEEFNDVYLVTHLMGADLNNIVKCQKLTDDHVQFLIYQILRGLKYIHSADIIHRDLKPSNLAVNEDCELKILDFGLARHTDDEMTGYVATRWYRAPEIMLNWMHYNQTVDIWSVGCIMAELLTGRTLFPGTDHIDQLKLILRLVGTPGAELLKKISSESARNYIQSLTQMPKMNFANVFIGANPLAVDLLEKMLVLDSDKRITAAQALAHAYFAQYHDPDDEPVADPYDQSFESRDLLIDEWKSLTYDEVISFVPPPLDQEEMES

Where only a bound is given, the exact number is not on record here.

Sequence of High affinity nerve growth factor receptor (P04629 33-796 limits assumed): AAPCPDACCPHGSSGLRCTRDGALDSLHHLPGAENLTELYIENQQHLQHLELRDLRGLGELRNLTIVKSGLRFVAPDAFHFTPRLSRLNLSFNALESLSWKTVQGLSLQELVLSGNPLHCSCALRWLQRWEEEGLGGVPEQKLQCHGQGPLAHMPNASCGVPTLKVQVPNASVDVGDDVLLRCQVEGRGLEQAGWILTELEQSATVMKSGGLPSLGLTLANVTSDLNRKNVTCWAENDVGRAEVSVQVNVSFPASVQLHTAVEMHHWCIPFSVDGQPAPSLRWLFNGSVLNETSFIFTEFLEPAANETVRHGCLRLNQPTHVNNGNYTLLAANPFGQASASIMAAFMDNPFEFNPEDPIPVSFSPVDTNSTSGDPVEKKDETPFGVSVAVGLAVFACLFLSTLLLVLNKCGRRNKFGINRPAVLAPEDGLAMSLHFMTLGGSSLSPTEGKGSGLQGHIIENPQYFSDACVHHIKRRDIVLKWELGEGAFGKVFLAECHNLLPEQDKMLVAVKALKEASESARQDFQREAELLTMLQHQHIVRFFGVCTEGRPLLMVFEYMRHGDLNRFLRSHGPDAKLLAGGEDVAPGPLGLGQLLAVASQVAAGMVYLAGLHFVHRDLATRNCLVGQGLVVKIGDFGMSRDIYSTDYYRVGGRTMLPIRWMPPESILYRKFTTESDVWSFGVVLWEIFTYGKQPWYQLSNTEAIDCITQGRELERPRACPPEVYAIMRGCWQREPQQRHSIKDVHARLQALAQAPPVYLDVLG
Sequence of Serine/threonine-protein kinase WNK4 (Homo sapiens) (Q96J92 whole entry): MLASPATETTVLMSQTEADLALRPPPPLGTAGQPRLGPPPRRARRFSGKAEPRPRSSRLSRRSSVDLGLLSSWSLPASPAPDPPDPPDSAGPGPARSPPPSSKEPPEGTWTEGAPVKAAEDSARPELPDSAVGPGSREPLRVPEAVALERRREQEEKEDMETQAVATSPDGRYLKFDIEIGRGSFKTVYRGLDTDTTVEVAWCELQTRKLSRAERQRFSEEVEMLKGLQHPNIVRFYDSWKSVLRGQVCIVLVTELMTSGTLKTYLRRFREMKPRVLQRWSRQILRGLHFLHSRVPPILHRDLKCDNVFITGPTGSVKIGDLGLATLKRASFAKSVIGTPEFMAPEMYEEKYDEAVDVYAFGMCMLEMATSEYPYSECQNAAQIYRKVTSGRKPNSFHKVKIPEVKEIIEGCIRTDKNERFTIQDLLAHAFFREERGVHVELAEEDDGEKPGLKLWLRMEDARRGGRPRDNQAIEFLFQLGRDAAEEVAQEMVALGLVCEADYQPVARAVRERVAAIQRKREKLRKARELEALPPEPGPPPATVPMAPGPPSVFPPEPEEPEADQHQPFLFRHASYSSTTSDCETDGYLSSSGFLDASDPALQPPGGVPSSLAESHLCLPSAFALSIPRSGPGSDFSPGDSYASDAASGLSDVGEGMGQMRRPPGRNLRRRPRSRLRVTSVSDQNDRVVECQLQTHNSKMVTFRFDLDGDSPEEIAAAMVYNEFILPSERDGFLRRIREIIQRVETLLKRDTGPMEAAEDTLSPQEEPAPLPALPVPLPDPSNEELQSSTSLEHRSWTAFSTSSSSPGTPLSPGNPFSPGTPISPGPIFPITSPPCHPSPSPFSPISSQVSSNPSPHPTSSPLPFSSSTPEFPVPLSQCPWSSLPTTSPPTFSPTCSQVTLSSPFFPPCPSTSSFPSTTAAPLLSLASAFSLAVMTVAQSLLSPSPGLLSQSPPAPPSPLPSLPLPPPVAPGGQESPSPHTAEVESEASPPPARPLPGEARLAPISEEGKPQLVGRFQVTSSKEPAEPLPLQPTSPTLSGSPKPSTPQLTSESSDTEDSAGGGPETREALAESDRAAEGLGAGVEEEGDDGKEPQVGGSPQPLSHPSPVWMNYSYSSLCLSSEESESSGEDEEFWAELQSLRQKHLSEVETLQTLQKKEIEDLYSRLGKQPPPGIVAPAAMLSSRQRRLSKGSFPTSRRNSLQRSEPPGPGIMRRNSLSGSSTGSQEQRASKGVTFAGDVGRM

Take `CNC(=O)c1ccc(Nc2ncc(C(F)(F)F)c(NCc3nccnc3N(C)S(C)(=O)=O)n2)cc1` [DEFACTINIB]: in assay [1], the % of control amounted to 4.8%.
Take `CCOc1cn(-c2ccc(F)cc2C)nc1C(=O)Nc1ccc(Oc2ccnc3cc(OC)c(OC)cc23)c(F)c1`: the % of control in assay [2], in [3] and in assay [4] was < 10% each time.
For `COc1cc2ncn(-c3cc(OCc4ccccc4C(F)(F)F)c(C(N)=O)s3)c2cc1OC` [GW843682X], the % of control in assay [5] was found to be 1%.
With `C[C@H](c1ccnc(Nc2nc3ccc(-c4cc(N(C)C)ncn4)cc3[nH]2)c1)N1CCN(C(=O)CC(F)(F)F)CC1` [BAY-985], the % of control in assay [6] amounted to 8.5%.
Turning to `CN(c1ccnc(CNc2nc(Nc3ccc4c(c3)CC(=O)N4)ncc2C(F)(F)F)n1)S(C)(=O)=O` [PF-00911705], the % of control in [7] came out at 10%; in assay [8], 0%; in assay [9], 0%; in assay [10], 5.5%.
As to `CN1C(=O)c2sccc2N(C)c2nc(Nc3ccc(S(N)(=O)=O)cc3)ncc21`, in assay [11], the % of control stood at 0.6%.
As for `CC[C@@H]1C(=O)N(C)c2cnc(Nc3ccc(C(=O)NC4CCN(C)CC4)cc3OC)nc2N1C1CCCC1`, the % of control in assay [12] is 100%.
